Results taken from PubChem BioAssay (NCI).
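Cultured in 96-well plates, cells were exposed to test compound for 48 hours across five concentrations. GI50 is the concentration that inhibits growth by half. TGI marks complete inhibition of growth.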

How the values were obtained:
Assay in all cases: NCI-60 cell line screen, 48 h
[1] = test system: SF-295 CNS
[2] = test system: NCI-H460 lung
[3] = test system: HOP-92 NSCLC
[4] = test system: COLO 205 colon
[5] = test system: CCRF-CEM leukemia
[6] = test system: 786-0 renal
[7] = test system: HT29 colon
[8] = test system: SF-539 CNS
[9] = test system: T-47D breast
[10] = test system: MOLT-4 leukemia

Compound	GI50 [1]	TGI [1]	GI50 [2]	TGI [2]	GI50 [3]	TGI [3]	GI50 [4]	TGI [4]	GI50 [5]	TGI [5]	GI50 [6]	TGI [6]	GI50 [7]	TGI [7]	GI50 [8]	TGI [8]	GI50 [9]	TGI [9]	GI50 [10]	TGI [10]
O=C1c2cccc3c(N4CCN(c5ccc6c7c(cccc57)C(=O)N(CCN5CCNCC5)C6=O)CC4)ccc(c23)C(=O)N1CCN1CCNCC1	15500 nM	35700 nM	12500 nM	80000 nM	7310 nM	29000 nM	8870 nM	> 100000 nM	3090 nM	18400 nM	1840 nM	4320 nM	3910 nM	> 100000 nM	13000 nM	34100 nM	> 100000 nM	> 100000 nM		
O=S(=O)(Nc1ccc(Cl)c(C(F)(F)F)c1)c1ccc(-c2cnc(C3CC3)o2)cc1	131 nM	2120 nM	102 nM	10000 nM	1040 nM	4160 nM	419 nM	2330 nM	285 nM	> 25100 nM	1100 nM	3580 nM	157 nM		452 nM	2160 nM	289 nM	8920 nM	622 nM	14100 nM
N#CC1=C(N)Oc2c(sc3c(F)cccc23)C1c1ccc([N+](=O)[O-])cc1 (stereo unspecified)	184 nM	1110 nM	253 nM	1170 nM	156 nM	1180 nM	279 nM	1110 nM	179 nM	3230 nM	337 nM	1460 nM	323 nM	1470 nM	188 nM	524 nM	254 nM	2860 nM	132 nM	1460 nM
CC1=COC2=C(C)C(=O)C(=O)c3c(C)ccc1c32		18800 nM		15400 nM		39900 nM		8910 nM		> 76100 nM		19600 nM		12800 nM		10700 nM		27700 nM		12000 nM
CCOC(=O)c1cc(C(=O)c2cc(OC)cc(OC)c2)n2ncccc12	2100 nM	> 100000 nM	2580 nM	> 100000 nM	24900 nM	> 100000 nM	797 nM	75500 nM	2510 nM	> 100000 nM	11400 nM	> 100000 nM	403 nM	> 100000 nM	1850 nM	40200 nM	17200 nM	> 100000 nM	2630 nM	> 100000 nM
C#C[C@]1(O)CC[C@H]2[C@@H]3CC=C4c5nc(Nc6ccc(OC)cc6OC)sc5CC[C@]4(C)[C@H]3CC[C@@]21C	249 nM	613 nM	2650 nM	10300 nM	2100 nM	7000 nM	2140 nM	4780 nM	544 nM	11000 nM	504 nM	2600 nM	1290 nM	6400 nM	374 nM	1700 nM	2670 nM	15700 nM	460 nM	4690 nM
CN(C)CCCC1(c2ccc(F)cc2)OCc2cc(-c3ccc4cc[nH]c4c3)ccc21 (stereo unspecified)	1790 nM	3310 nM	1790 nM	3490 nM	2280 nM	7900 nM	2110 nM	4680 nM	2650 nM	7120 nM	1780 nM	3410 nM	2330 nM	5930 nM	1780 nM	3230 nM	2010 nM	5170 nM	2040 nM	4340 nM
N#Cc1cccc(Nc2nccc(-c3cnn4ncccc34)n2)c1	4.87 nM	22.3 nM	8.37 nM	> 25000 nM	5.89 nM	16.6 nM	2.95 nM	6.63 nM	6 nM	> 25000 nM	6.08 nM	> 25000 nM	5.72 nM	34 nM	3.81 nM	15.4 nM	18.2 nM	219 nM		
Clc1ccc2c(NCCCN3CCN(c4nc(-n5ccnc5)nc5ccccc45)CC3)ccnc2c1	1880 nM	3520 nM			14300 nM	> 62300 nM	> 100000 nM	> 100000 nM	2870 nM	> 100000 nM	1660 nM	3210 nM	1880 nM	4470 nM	1810 nM	3340 nM	> 100000 nM	> 100000 nM	2380 nM	6850 nM
Cc1ccnc2c1NC(=O)c1cccnc1N2C1CC1			> 100000 nM	> 100000 nM	> 100000 nM	> 100000 nM	> 100000 nM	> 100000 nM	> 100000 nM	> 100000 nM	> 100000 nM	> 100000 nM	> 100000 nM	> 100000 nM	> 100000 nM	> 100000 nM	> 100000 nM	> 100000 nM	> 100000 nM	> 100000 nM
